Data set [1] relates to streptozotocin (STZ) induced hyperglycemia. As to the kind of experiment: Single high-dose streptozotocin model of diabetes. Conditions: 3 mg/kg i.p.; STZ 160 mg/kg; blood sugar 3 days later; STZ + vehicle 320 ± 13, basal 153 ± 21; 8l as mesylate salt. In kind it is in vivo, mice. As for the experimental part:
PARS inhibitors and PARS deficiency are known to reduce the development of diabetes and the incidence of diabetic complications (Mabley et al., Br J. Pharmacol. 2001, 133(6):909-9; and Soriano et al., Nat Med. 2001, 7(1):108-13). […] Briefly, 160 mg/kg streptozotocin was injected to mice treated with vehicle or with illustrative Isoquinoline Derivatives intraperitoneally (3 mg/kg) and 3 days later blood sugar levels were determined using a blood glucose meter.

Another data set relates to TNF-alpha. Nature of the data set: LPS induced TNF production in mice. The format is in vivo. On the set-up: unit not given here. Conditions: LPS 10 mg/kg i.p., plasma at 90 minutes, vehicle 6994.0 ± 904.4, 8l as mesylate salt.
For a further data set, the target named is T1, PARS (Mus musculus, UniProt P11103).
T1 construct: endogenous in cells; host or cells: RAW mouse macrophages
As to the kind of experiment: PARS activation in peroxynitrite-treated cultured macrophages (whole-cell 3H-NAD+ assay). To be noted: cultured murine macrophages. The format is cell-based. As for the experimental part:
Raw mouse macrophages were cultured in DMEM medium with high glucose and supplemented with 10% fetal bovine serum. Cells were used at 80% confluence in 12-well plates. Cells were pretreated with various concentrations (100 nM -1 µM) of an Isoquinoline Derivative for 10 min. Peroxynitrite, a prototypical oxidant which induces DNA single strand breakage, was used to induce PARS activation. Peroxynitrite was diluted in phosphate buffered saline (PBS) (pH 11.0) and added to the cells in a bolus of 50 μl. Cells were then incubated for 20 min. […] After the 20 min incubation, the cells were spun, the medium was aspirated and the cells were resuspended in 0.5 ml assay buffer (56 mM HEPES pH 7.5, 28 mM KCl, 28 mM NaCl, 2 mM MgCl2, 0.01% w/v digitonin and 0.125 μM NAD^+ and 0.5 μCi/ml ^3H-NAD^+). Following an incubation in assay buffer, (10 min at 37° C.), PARS activity was measured as follows: 200 μl ice cold 50% w/v TCA was added and the samples were incubated for 4 hours at 4° C. Samples were then spun (10 min @ 10,000 g) and pellets washed twice with ice cold 5% w/v TCA and solubilized overnight in 250 μl 2% w/v SDS/0.1 N NaOH at 37° C. The contents of the tubes were added to 6.5 ml ScintiSafe Plus scintillation liquid (Fisher Scientific) and radioactivity was determined using a liquid scintillation counter (Wallac, Gaithersburg, Md.).

Another data set concerns CLP induced shock. As to the kind of experiment: Cecal ligation and puncture (CLP) induced shock mortality. The format is in vivo. To be noted: 3 mg/kg/day; over 24 h; untreated 100% death.
Another data set has as its system Balb/c mice. As to the kind of experiment: LPS (endotoxin) induced mortality. The format is in vivo. Conditions: 3 mg/kg/day; 100 mg/kg LPS i.p.; over 24 h; untreated 50%.
The test system of data set [2] is ischemic and reperfused gut. As to the kind of experiment: Mouse model of ischemic and reperfused gut.
Protocol: In order to substantiate the efficacy of the Isoquinoline Derivatives in ischemia-reperfusion conditions, the effect of an illustrative Isoquinoline Derivative in a mouse model of ischemic and reperfused gut was tested. […] Following the end of the reperfusion, gut permeability was measured with the FD4 method in evened gut sacks (Liaudet et al., Shock 2000, 14(2): 134-41).
Data set [3] concerns middle cerebral artery occlusion/reperfusion. Nature of the data set: Rat model of middle cerebral artery occlusion/reperfusion. To be noted: 3 mg/kg/day in 3 divided i.p. doses; 2 h occlusion, 24 h reperfusion; vs vehicle-treated controls. The format is in vivo. Here is the method:
Occlusion lasted for 2 hours, followed by reperfusion for 24 hours. Infarct size was quantified with tetrazolium staining. […] There was an approximately 80% reduction in the degree of cortical necrosis and neuronal death in the animals administered with 8l (mesylate salt), when compared to vehicle-treated controls.

The test system of the next data set is thymocytes. To be noted: peroxynitrite induced, control 98%.

Where a name gives a salt, the structure may show the parent alone. Read-outs that look alike come from different tables or passages of the source.

For orientation: mortality means the percentage killed. Broadly, the inhibition is the change of the read-out against control, counted positive when it falls.

T1 sequence (P11103 whole entry): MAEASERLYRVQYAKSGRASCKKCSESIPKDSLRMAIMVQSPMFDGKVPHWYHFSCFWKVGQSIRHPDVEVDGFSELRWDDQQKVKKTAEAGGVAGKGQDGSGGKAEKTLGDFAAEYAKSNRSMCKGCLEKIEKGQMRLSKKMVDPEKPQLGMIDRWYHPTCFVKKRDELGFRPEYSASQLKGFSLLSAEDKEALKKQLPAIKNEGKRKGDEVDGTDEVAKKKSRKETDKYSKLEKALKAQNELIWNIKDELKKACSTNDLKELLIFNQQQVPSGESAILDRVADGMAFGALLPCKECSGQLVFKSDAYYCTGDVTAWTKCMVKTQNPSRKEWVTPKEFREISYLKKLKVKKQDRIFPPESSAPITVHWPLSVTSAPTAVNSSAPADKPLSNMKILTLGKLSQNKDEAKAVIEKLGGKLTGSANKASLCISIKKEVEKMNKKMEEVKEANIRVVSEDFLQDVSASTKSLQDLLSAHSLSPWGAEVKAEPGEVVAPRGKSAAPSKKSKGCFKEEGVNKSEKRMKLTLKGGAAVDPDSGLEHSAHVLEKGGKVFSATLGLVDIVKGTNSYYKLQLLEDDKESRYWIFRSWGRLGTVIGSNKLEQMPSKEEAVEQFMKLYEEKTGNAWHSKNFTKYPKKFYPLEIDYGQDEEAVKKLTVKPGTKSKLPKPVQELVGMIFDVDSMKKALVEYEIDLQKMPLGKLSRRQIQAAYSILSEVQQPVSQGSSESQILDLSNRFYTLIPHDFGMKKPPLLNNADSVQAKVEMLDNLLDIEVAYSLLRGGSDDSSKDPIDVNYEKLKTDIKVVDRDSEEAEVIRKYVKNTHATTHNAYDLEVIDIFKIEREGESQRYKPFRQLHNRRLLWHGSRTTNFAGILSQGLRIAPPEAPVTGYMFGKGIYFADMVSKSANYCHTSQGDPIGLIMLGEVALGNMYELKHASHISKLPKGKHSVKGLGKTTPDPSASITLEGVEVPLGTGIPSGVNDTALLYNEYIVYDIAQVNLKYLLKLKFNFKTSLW
Description for thymocytes: In addition in vitro studies in isolated thymocytes, cells were exposed to peroxynitrite or hydrogen peroxide (toxic oxidant species) to induce cytotoxicity.

For the compound `O=c1[nH]c2c(c3ccccc13)Cc1cc(S(=O)(=O)NCCN3CCOCC3)ccc1-2` [Compound 8j, 9-[N-(2-[morpholino-4-yl]ethyl)-aminosulphonyl]-5,6-dihydro-5-oxo-11H-indeno[1,2-c]isoquinoline], the Glucose in data set [1] was 253 ± 24 mg/dL. Also, the values for the TNF in the data set on TNF-alpha (0.1 mg/kg i.p. pretreatment) and in the data set with TNF-alpha (1.0 mg/kg i.p. pretreatment) were 3831.6 ± 385.2 and 5038.8 ± 377.1, respectively. In addition, the “% PARS inhibition at 100 nM” value on PARS (100 nM) was determined as 34%. Also, the “% PARS inhibition at 300 nM” value at PARS (300 nM) is on record as 76%.

With `O=c1[nH]c2c(c3ccccc13)Cc1cc(S(=O)(=O)NCCCN3CCOCC3)ccc1-2` [Compound 8l (mesylate salt), 9-[N-(3-[morpholino-4-yl]propyl)-aminosulphonyl]-5,6-dihydro-5-oxo-11H-indeno-[1,2c]isoquinoline], the “mortality (death) in CLP induced shock” value in the data set with CLP induced shock came out at 60%. Besides, the endotoxin-induced mortality with Balb/c mice was 10%. Further, in data set [2] (3 mg/kg i.v. 10 min prior to reperfusion, 45 min occlusion, 1 h reperfusion, FD4 method), the “reduction of the increase in the permeability of the gut” value is “approximately 73%”. This compound also displayed a mortality in data set [2] (gut ischemia-reperfusion, over 12 hours, untreated 80%) of 15%. Further, the “reduction in the degree of cortical necrosis and neuronal death” value in data set [3] is on record as “approximately 80%”.

`O=c1[nH]c2c(c3ccccc13)Cc1cc(S(=O)(=O)NCCCN3CCOCC3)ccc1-2` [Compound 8l, 9-[N-(3-[morpholino-4-yl]propyl)-aminosulphonyl]-5,6-dihydro-5-oxo-11H-indeno-[1,2c]isoquinoline]: the Glucose in data set [1] was 244 ± 21 mg/dL. Moreover, the Cytotoxicity turned out to be 74% in the data set on thymocytes (30 nM 8l (mesylate salt per title)); 39% in the data set with thymocytes (100 nM 8l (mesylate salt per title)); 2% with thymocytes (300 nM 8l (mesylate salt per title)); 0% in the data set on thymocytes (1 μM 8l (mesylate salt per title)); 0% with thymocytes (3 μM 8l (mesylate salt per title)).

On to `CCN(CC)CCN(CCN(CC)CC)S(=O)(=O)c1ccc2c(c1)=Cc1c3c(c(=O)[nH]c1=2)=CC=CC3` [Compound 8p, 9-[N,N-di-(2-[N,N-diethylamino]ethyl)-aminosulphonyl]-5,6-dihydro-5-oxo-1H-indeno-[1,2-c]isoquinoline], for which, in data set [1], the Glucose worked out at 264 ± 24 mg/dL. Besides, the TNF with TNF-alpha (0.1 mg/kg i.p. pretreatment) is recorded as 4470.0 ± 184.4; in the data set on TNF-alpha (1.0 mg/kg i.p. pretreatment), 5090.8 ± 203.7. Further, the inhibition at 0.1 µM on PARS (100 nM) was found to be 27%. This compound also had an inhibition at 0.3 µM on PARS (300 nM) of 45%.

These data come from patent publication US20050228007A1, “Isoquinoline derivatives and methods of use thereof” (priority 2004, published 2005).
